{
  "source": "patent US20250230165A1",
  "about": "“HETEROCYCLIC COMPOUNDS FOR USE IN THE TREATMENT OF CANCER” (ARTIOS PHARMA LIMITED, priority 2021, published 2025)",
  "molecular_target": "T1, Human Polθ polymerase domain (aa1820-2590) (Homo sapiens, UniProt O75417)",
  "T1 construct": "Human Polθ polymerase domain (aa1820-2590) was expressed in E. coli; made in house; host or cells: E. coli",
  "T1 sequence (O75417 1820-2590)": "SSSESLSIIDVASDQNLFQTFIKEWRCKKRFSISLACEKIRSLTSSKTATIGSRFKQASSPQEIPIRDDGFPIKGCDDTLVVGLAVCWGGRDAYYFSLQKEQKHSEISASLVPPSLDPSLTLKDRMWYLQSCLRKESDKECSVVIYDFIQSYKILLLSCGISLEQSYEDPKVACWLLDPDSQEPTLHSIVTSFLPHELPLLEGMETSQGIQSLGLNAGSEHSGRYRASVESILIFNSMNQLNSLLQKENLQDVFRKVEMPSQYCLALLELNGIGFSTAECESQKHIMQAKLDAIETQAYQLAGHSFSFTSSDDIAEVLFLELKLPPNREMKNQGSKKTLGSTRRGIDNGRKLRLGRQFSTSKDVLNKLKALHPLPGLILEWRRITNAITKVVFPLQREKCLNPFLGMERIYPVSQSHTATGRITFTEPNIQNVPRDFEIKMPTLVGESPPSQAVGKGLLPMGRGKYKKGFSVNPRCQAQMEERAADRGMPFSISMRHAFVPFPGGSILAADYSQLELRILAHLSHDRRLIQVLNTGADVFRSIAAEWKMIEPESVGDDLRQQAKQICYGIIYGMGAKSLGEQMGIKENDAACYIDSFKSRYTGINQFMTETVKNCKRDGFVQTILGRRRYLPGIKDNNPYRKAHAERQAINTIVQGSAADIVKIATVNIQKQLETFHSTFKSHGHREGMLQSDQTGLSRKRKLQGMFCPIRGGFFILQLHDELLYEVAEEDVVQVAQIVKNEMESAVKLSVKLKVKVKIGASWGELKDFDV",
  "assay": "Polθ Polymerase Domain Kinact/KI Assay (PicoGreen)",
  "format": "biochemical",
  "conditions": "0.8 nM Polθ, 100 nM DNA substrate, kobs vs [I] fit for 2-step covalent inhibitor",
  "how_it_was_run": "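Time-dependent inhibition was followed with 0.8 nM polymerase domain, 100 nM DNA substrate and […], reactions quenched over 60 min and quantified by PicoGreen. Kinact and KI came from a secondary plot of kobs against inhibitor concentration.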",
  "data": [
    {"smiles": "C=CC(=O)N1CCC[C@H]1c1nnc(CN2C[C@H]3CC(=O)N(c4cc(C(F)(F)F)cc(C)n4)[C@@H]3C(=O)N(C)c3cccc(C)c32)o1", "note": "[Example 273, (3aR,11aS)-5-((5-((S)-1-acryloylpyrrolidin-2-yl)-1,3,4-oxadiazol-2-yl)methyl)-6,10-dimethyl-1-(6-methyl-4-(trifluoromethyl)pyridin-2-yl)-1,3a,4,5,10,11a-hexahydro-2H-benzo[b]pyrrolo[2,3-f][1,4]diazocine-2,11(3H)-dione]", "values": [
      {"measurement": "Kinact/Kl", "result": 60000, "unit": "M⁻¹ s⁻¹"}
    ]},
    {"smiles": "C=CC(=O)N1CC[C@@H]1c1nnc(CN2C[C@H]3CC(=O)N(c4cc(C(F)(F)F)cc(C)n4)[C@@H]3C(=O)N(C)c3cccc(C)c32)o1", "note": "[Example 274, (3aR,11aS)-5-((5-((R)-1-acryloylazetidin-2-yl)-1,3,4-oxadiazol-2-yl)methyl)-6,10-dimethyl-1-(6-methyl-4-(trifluoromethyl)pyridin-2-yl)-1,3a,4,5,10,11a-hexahydro-2H-benzo[b]pyrrolo[2,3-f][1,4]diazocine-2,11(3H)-dione]", "values": [
      {"measurement": "Kinact/Kl", "result": 470000, "unit": "M⁻¹ s⁻¹"}
    ]},
    {"smiles": "C=CC(=O)N1CC[C@H]1c1nnc(CN2C[C@H]3CC(=O)N(c4cc(C(F)(F)F)cc(C)n4)[C@@H]3C(=O)N(C)c3cccc(C)c32)o1", "note": "[Example 275, (3aR,11aS)-5-((5-((S)-1-acryloylazetidin-2-yl)-1,3,4-oxadiazol-2-yl)methyl)-6,10-dimethyl-1-(6-methyl-4-(trifluoromethyl)pyridin-2-yl)-1,3a,4,5,10,11a-hexahydro-2H-benzo[b]pyrrolo[2,3-f][1,4]diazocine-2,11(3H)-dione]", "values": [
      {"measurement": "Kinact/Kl", "result": 800000, "unit": "M⁻¹ s⁻¹"}
    ]},
    {"smiles": "C=CC(=O)N1Cc2ccc(CN3C[C@H]4CC(=O)N(c5cc(C(F)(F)F)cc(C)n5)[C@@H]4C(=O)N(C)c4cccc(Cl)c43)nc2C1", "note": "[Example 276, (3aR,11aS)-5-((6-acryloyl-6,7-dihydro-5H-pyrrolo[3,4-b]pyridin-2-yl)methyl)-6-chloro-10-methyl-1-(6-methyl-4-(trifluoromethyl)pyridin-2-yl)-1,3a,4,5,10,11a-hexahydro-2H-benzo[b]pyrrolo[2,3-f][1,4]diazocine-2,11(3H)-dione]", "values": [
      {"measurement": "Kinact/Kl", "result": "1.76e+06", "unit": "M⁻¹ s⁻¹"}
    ]},
    {"smiles": "C=CC(=O)N1Cc2cnc(CN3C[C@H]4CC(=O)N(c5cc(C(F)(F)F)cc(C)n5)[C@@H]4C(=O)N(C)c4cccc(Cl)c43)cc2C1", "note": "[Example 277, (3aR,11aS)-5-((2-acryloyl-2,3-dihydro-1H-pyrrolo[3,4-c]pyridin-6-yl)methyl)-6-chloro-10-methyl-1-(6-methyl-4-(trifluoromethyl)pyridin-2-yl)-1,3a,4,5,10,11a-hexahydro-2H-benzo[b]pyrrolo[2,3-f][1,4]diazocine-2,11(3H)-dione]", "values": [
      {"measurement": "Kinact/Kl", "result": 80000, "unit": "M⁻¹ s⁻¹"}
    ]},
    {"smiles": "C=CC(=O)N1Cc2cnc(CN3C[C@H]4CC(=O)N(c5cc(C(F)(F)F)cc(C)n5)[C@@H]4C(=O)N(C)c4cccc(Cl)c43)nc2C1", "note": "[Example 278, (3aR,11aS)-5-((6-acryloyl-6,7-dihydro-5H-pyrrolo[3,4-d]pyrimidin-2-yl)methyl)-6-chloro-10-methyl-1-(6-methyl-4-(trifluoromethyl)pyridin-2-yl)-1,3a,4,5,10,11a-hexahydro-2H-benzo[b]pyrrolo[2,3-f][1,4]diazocine-2,11(3H)-dione]", "values": [
      {"measurement": "Kinact/Kl", "result": 770000, "unit": "M⁻¹ s⁻¹"}
    ]},
    {"smiles": "C=CC(=O)N1Cc2nc(CN3C[C@H]4CC(=O)N(c5cc(C(F)(F)F)cc(C)n5)[C@@H]4C(=O)N(C)c4cccc(Cl)c43)n(CC)c2C1", "note": "[Example 279, (3aR,11aS)-5-((5-acryloyl-1-ethyl-1,4,5,6-tetrahydropyrrolo[3,4-d]imidazol-2-yl)methyl)-6-chloro-10-methyl-1-(6-methyl-4-(trifluoromethyl)pyridin-2-yl)-1,3a,4,5,10,11a-hexahydro-2H-benzo[b]pyrrolo[2,3-f][1,4]diazocine-2,11(3H)-dione]", "values": [
      {"measurement": "Kinact/Kl", "result": 900000, "unit": "M⁻¹ s⁻¹"}
    ]},
    {"smiles": "C=CC(=O)N1Cc2nc(CN3C[C@H]4CC(=O)N(c5cc(C(F)(F)F)cc(C)n5)[C@@H]4C(=O)N(C)c4cccc(Cl)c43)sc2C1", "note": "[Example 280, (3aR,11aS)-5-((5-acryloyl-5,6-dihydro-4H-pyrrolo[3,4-d]thiazol-2-yl)methyl)-6-chloro-10-methyl-1-(6-methyl-4-(trifluoromethyl)pyridin-2-yl)-1,3a,4,5,10,11a-hexahydro-2H-benzo[b]pyrrolo[2,3-f][1,4]diazocine-2,11(3H)-dione]", "values": [
      {"measurement": "Kinact/Kl", "result": "2.54e+06", "unit": "M⁻¹ s⁻¹"}
    ]},
    {"smiles": "C=CC(=O)N1CCOc2cc(CN3C[C@H]4CC(=O)N(c5cc(C(F)(F)F)cc(C)n5)[C@@H]4C(=O)N(C)c4cccc(Cl)c43)ccc21", "note": "[Example 281, (3aR,11aS)-5-((4-acryloyl-3,4-dihydro-2H-benzo[b][1,4]oxazin-7-yl)methyl)-6-chloro-10-methyl-1-(6-methyl-4-(trifluoromethyl)pyridin-2-yl)-1,3a,4,5,10,11a-hexahydro-2H-benzo[b]pyrrolo[2,3-f][1,4]diazocine-2,11(3H)-dione]", "values": [
      {"measurement": "Kinact/Kl", "result": "1.05e+06", "unit": "M⁻¹ s⁻¹"}
    ]},
    {"smiles": "C=CC(=O)Nc1ccc(CN2C[C@H]3CC(=O)N(c4cc(C(F)(F)F)cc(C)n4)[C@@H]3C(=O)N(C)c3cccc(Cl)c32)cn1", "note": "[Example 282, N-(5-(((3aR,11aS)-6-chloro-10-methyl-1-(6-methyl-4-(trifluoromethyl)pyridin-2-yl)-2,11-dioxo-1,2,3,3a,4,10,11,11a-octahydro-5H-benzo[b]pyrrolo[2,3-f][1,4]diazocin-5-yl)methyl)pyridin-2-yl)acrylamide]", "values": [
      {"measurement": "Kinact/Kl", "result": 870000, "unit": "M⁻¹ s⁻¹"}
    ]},
    {"smiles": "C=CC(=O)Nc1ccc(CN2C[C@H]3CC(=O)N(c4cc(C(F)(F)F)cc(C)n4)[C@@H]3C(=O)N(C)c3cccc(Cl)c32)nc1", "note": "[Example 283, N-(6-(((3aR,11aS)-6-chloro-10-methyl-1-(6-methyl-4-(trifluoromethyl)pyridin-2-yl)-2,11-dioxo-1,2,3,3a,4,10,11,11a-octahydro-5H-benzo[b]pyrrolo[2,3-f][1,4]diazocin-5-yl)methyl)pyridin-3-yl)acrylamide]", "values": [
      {"measurement": "Kinact/Kl", "result": 950000, "unit": "M⁻¹ s⁻¹"}
    ]},
    {"smiles": "C=CC(=O)Nc1cnc(CN2C[C@H]3CC(=O)N(c4cc(C(F)(F)F)cc(C)n4)[C@@H]3C(=O)N(C)c3cccc(Cl)c32)nc1", "note": "[Example 284, N-(2-(((3aR,11aS)-6-chloro-10-methyl-1-(6-methyl-4-(trifluoromethyl)pyridin-2-yl)-2,11-dioxo-1,2,3,3a,4,10,11,11a-octahydro-5H-benzo[b]pyrrolo[2,3-f][1,4]diazocin-5-yl)methyl)pyrimidin-5-yl)acrylamide]", "values": [
      {"measurement": "Kinact/Kl", "result": 770000, "unit": "M⁻¹ s⁻¹"}
    ]},
    {"smiles": "C=CC(=O)N1CC(F)(COCCN2C[C@H]3CC(=O)N(c4cc(C(F)(F)F)cc(C)n4)[C@@H]3C(=O)N(C)c3cccc(Cl)c32)C1", "note": "[Example 285, (3aR,11aS)-5-(2-((1-acryloyl-3-fluoroazetidin-3-yl)methoxy)ethyl)-6-chloro-10-methyl-1-(6-methyl-4-(trifluoromethyl)pyridin-2-yl)-1,3a,4,5,10,11a-hexahydro-2H-benzo[b]pyrrolo[2,3-f][1,4]diazocine-2,11(3H)-dione]", "values": [
      {"measurement": "Kinact/Kl", "result": "1.98e+06", "unit": "M⁻¹ s⁻¹"}
    ]},
    {"smiles": "C=CC(=O)NC1Cc2ccc(CN3C[C@H]4CC(=O)N(c5cc(C(F)(F)F)cc(C)n5)[C@@H]4C(=O)N(C)c4cccc(Cl)c43)cc2C1", "note": "(stereo partly drawn) [Example 286, N-(5-(((3aR,11aS)-6-chloro-10-methyl-1-(6-methyl-4-(trifluoromethyl)pyridin-2-yl)-2,11-dioxo-1,2,3,3a,4,10,11,11a-octahydro-5H-benzo[b]pyrrolo[2,3-f][1,4]diazocin-5-yl)methyl)-2,3-dihydro-1H-inden-2-yl)acrylamide]", "values": [
      {"measurement": "Kinact/Kl", "result": 610000, "unit": "M⁻¹ s⁻¹"}
    ]},
    {"smiles": "Cc1cc(C(F)(F)F)cc(N2C(=O)C[C@@H]3CN(CCCC(F)CNC(=O)/C=C/CN(C)C)c4c(Cl)cccc4N(C)C(=O)[C@H]32)n1", "note": "(stereo partly drawn) [Example 295, (E)-N-(5-((3aR,11aS)-6-chloro-10-methyl-1-(6-methyl-4-(trifluoromethyl)pyridin-2-yl)-2,11-dioxo-1,2,3,3a,4,10,11,11a-octahydro-5H-benzo[b]pyrrolo[2,3-f][1,4]diazocin-5-yl)-2-fluoropentyl)-4-(dimethylamino)but-2-enamide]", "values": [
      {"measurement": "Kinact/Kl", "result": "1.62e+06", "unit": "M⁻¹ s⁻¹"}
    ]},
    {"smiles": "Cc1cc(C(F)(F)F)cc(N2C(=O)C[C@@H]3CN(CCCC(F)(F)CNC(=O)/C=C/CN(C)C)c4c(Cl)cccc4N(C)C(=O)[C@H]32)n1", "note": "[Example 296, (E)-N-(5-((3aR,11aS)-6-chloro-10-methyl-1-(6-methyl-4-(trifluoromethyl)pyridin-2-yl)-2,11-dioxo-1,2,3,3a,4,10,11,11a-octahydro-5H-benzo[b]pyrrolo[2,3-f][1,4]diazocin-5-yl)-2,2-difluoropentyl)-4-(dimethylamino)but-2-enamide]", "values": [
      {"measurement": "Kinact/Kl", "result": "3e+06", "unit": "M⁻¹ s⁻¹"}
    ]}
  ]
}
